Test results as given in US12558428B2, “Heterobifunctional compounds and their use in treating disease” (Halda Therapeutics OpCo, Inc., priority 2024, dated 2026).
Where two headings read alike, the source gives them in different places.

Tests used:
Assay type in all cases: cell-based
[1] = system: T-Rex 293 cells having increased expression of estrogen receptor alpha protein; test: Cellular growth inhibition assay, T-Rex 293 cells, (+) doxycycline; conditions: T-REx-293, 72 h, 72 hours
In short: (§1)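 Viability read-out was CellTiter-Glo 2.0 luminescence after 72 h compound exposure, normalized to zero luminescence and fitted by four-parameter regression to give GI50. Cells were an ERα-inducible T-Rex 293 clone cultured with or without 3 ng/mL doxycycline in charcoal-stripped, phenol red-free medium.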

[2] = system: MCF7 cells (ATCC #HTB-22); test: Cellular growth inhibition assay, MCF7 cells purchased from ATCC; conditions: Homo sapiens, MCF7, 144 h, Table 8-A; MCF7 cells purchased from ATCC; six days; CellTiter-Glo; read-out: GI50
In short: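 MCF7 cells in RPMI 1640 with 10% FBS and 0.2 U/ml insulin, seeded at 1,500 cells/well (ATCC) or 225 cells/well (ECACC). Compounds added 24 h later, then 6 days at 37° C. Viability by CellTiter-Glo 2.0 luminescence. GI50 from four-parameter fit.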

[3] = system: T-Rex 293 cells lacking increased expression of estrogen receptor alpha protein; test: Cellular growth inhibition assay, T-Rex 293 cells, (−) doxycycline; conditions: T-REx-293, 72 h, 72 hours
In short: as §1

[4] = Table 7-A, T-Rex 293 cells with doxycycline (increased ERα expression), CellTiter-Glo, read-out: (+) Dox GI50
[5] = Table 7-A, T-Rex 293 cells without doxycycline (lacking increased ERα expression), CellTiter-Glo, read-out: (−) Dox GI50

SMILES | GI50 [2] [nM] | GI50 [1, 4] [nM] | GI50 [3, 5] [nM] | GI50 ([1]; Table 7-B, T-Rex 293 cells with doxycycline (increased ERα expression), CellTiter-Glo, read-out: (+) Dox GI50) [nM] | GI50 ([3]; Table 7-B, T-Rex 293 cells without doxycycline (lacking increased ERα expression), CellTiter-Glo, read-out: (−) Dox GI50) [nM] | GI50 ([1]; T-Rex 293 cells with doxycycline-induced ERα expression, CellTiter-Glo 2.0, read-out: (+) Dox TRex ERa (GI50)) [nM] | GI50 ([3]; T-Rex 293 cells without doxycycline, CellTiter-Glo 2.0, read-out: (−) Dox TRex ERa (GI50)) [nM]
Cc1sc2c(c1C)C(c1ccc(N3CC4(CCC(CN5CCC(c6ccc(C7=C(c8ccccc8)CCCc8cc(O)ccc87)cc6)CC5)CC4)C3)cc1)=N[C@@H](C)c1nnc(C)n1-2 [IV-47] | < 50 | < 50 | 500 to 2500 |  |  |  | 
Cc1sc2c(c1C)C(c1ccc(N[C@@H]3C[C@H]4CCC[C@@H](C3)N4CCOc3ccc([C@@H]4c5ccc(O)cc5CC[C@@H]4c4ccccc4)cc3)cc1)=NC(Cc1ncco1)c1nnc(C)n1-2 (stereo partly drawn) [III-64] | 50 to 500 | 50 to 500 | 50 to 500 |  |  |  | 
CC1=C(c2c(F)cc(F)cc2F)[C@H](c2ccc(OCCN3CCC[C@@]4(CCN(c5ccc(C6=N[C@@H](C)c7nnc(C)n7-c7sc(C)c(C)c76)cc5)C4)C3)cc2)Oc2ccc(O)cc21 [V-8] | 50 to 500 | < 50 | 500 to 2500 |  |  |  | 
Cc1sc2c(c1C)C(c1ccc(N3CCC(F)(CN4CCN(c5ccc(C6=C(c7ccc(Cl)cc7Cl)CCCc7cc(C(=O)O)ccc76)cc5)CC4)CC3)cc1)=N[C@@H](C)c1nnc(C)n1-2 [IV-27] | 50 to 500 | 50 to 500 | 500 to 2500 |  |  |  | 
Cc1cc(N2CCC(O)(CN3CCN(c4cc(F)c([C@H]5c6ccc(O)cc6CC[C@H]5c5ccccc5)cc4F)CC3)CC2)ccc1Oc1ccc(C(C)(C)O)cc1-c1cn(C)c(=O)c2[nH]ccc12 [V-38] | 50 to 500 |  |  | 50 to 500 | 50 to 500 |  | 
CCN(CCCCNC(=O)C[C@@H]1N=C(c2ccc(Cl)cc2)c2c(sc(C)c2C)-n2c(C)nnc21)CCOc1ccc(C(=O)c2c(-c3ccc(O)cc3)sc3cc(O)ccc23)cc1 [I-1, (S)-2-(4-(4-chlorophenyl)-2,3,9-trimethyl-6H-thieno[3,2-f][1,2,4]triazolo[4,3-a][1,4]diazepin-6-yl)-N-(4-(ethyl(2-(4-(6-hydroxy-2-(4-hydroxyphenyl)benzo[b]thiophene-3-carbonyl)phenoxy)ethyl)amino)butyl) acetamide] | 50 to 500 |  |  |  |  | 50 to 500 | 50 to 500
CC1=C(c2c(F)cc(F)cc2F)[C@@H](c2ccc(OCC(=O)N3CCCC4(CCN(c5ccc(C6=N[C@@H](C)c7nnc(C)n7-c7sc(C)c(C)c76)cc5)C4)C3)cc2)Oc2ccc(O)cc21 (stereo partly drawn) [V-29] | 50 to 500 | 50 to 500 | 50 to 500 |  |  |  | 
Cc1sc2c(c1C)C(c1ccc(C#CC3CC4(CCN(c5ccc([C@@H]6c7ccc(O)cc7CC[C@@H]6c6ccccc6)cc5)CC4)C3)cc1)=N[C@@H](Cc1ncco1)c1nnc(C)n1-2 [I-46] | 50 to 500 | < 50 | > 2500 |  |  |  | 
Cc1sc2c(c1C)C(c1ccc(N3CCC(CN4CCN(c5ccc(C6=C(c7ccccc7Cl)CCCc7cc(C(=O)O)ccc76)c(F)c5)CC4)CC3)cc1)=N[C@@H](Cc1ncco1)c1nnc(C)n1-2 [IV-49] | < 50 | < 50 | 500 to 2500 |  |  |  | 

Second part, led by results:

GI50 [2] [nM] | SMILES | GI50 [1, 4] [nM] | GI50 [3, 5] [nM] | GI50 ([1]; Table 7-B, T-Rex 293 cells with doxycycline (increased ERα expression), CellTiter-Glo, read-out: (+) Dox GI50) [nM] | GI50 ([3]; Table 7-B, T-Rex 293 cells without doxycycline (lacking increased ERα expression), CellTiter-Glo, read-out: (−) Dox GI50) [nM] | GI50 ([1]; T-Rex 293 cells with doxycycline-induced ERα expression, CellTiter-Glo 2.0, read-out: (+) Dox TRex ERa (GI50)) [nM] | GI50 ([3]; T-Rex 293 cells without doxycycline, CellTiter-Glo 2.0, read-out: (−) Dox TRex ERa (GI50)) [nM]
< 50 | COc1cc(N2CCN(CC3(O)CCN(c4ccc(C5=N[C@@H](C)c6nnc(C)n6-c6sc(C)c(C)c65)c(F)c4)CC3)CC2)ccc1[C@H]1c2ccc(O)cc2CC[C@H]1c1cccc(F)c1 (single isomer, unassigned) [III-343] | 50 to 500 | 50 to 500 |  |  |  | 
500 to 2500 | Cc1sc2c(c1C)C(c1ccc(N3CCC(O)(CN4CCN(c5cc(F)c([C@H]6c7ccc(O)cc7CC[C@H]6c6ccccc6)c(F)c5)CC4)CC3)cc1)=N[C@H](Cc1ncco1)c1nnc(C)n1-2 [III-195] | > 2500 | > 2500 |  |  |  | 
< 50 | Cc1sc2c(c1C)C(c1ccc(N3CC4(CCC(O)(CN5CCC(c6ccc([C@@H]7c8ccc(O)cc8CC[C@@H]7c7ccccc7)cc6)CC5)CC4)C3)cc1)=N[C@@H](Cc1ncco1)c1nnc(C)n1-2 [III-211] | < 50 | 50 to 500 |  |  |  | 
50 to 500 | Cc1sc2c(c1C)C(c1ccc(N3CCC(O)(CN4CCN(c5ccc([C@H]6c7ccc(O)cc7CC[C@H]6c6ccc(F)cc6)c(F)c5)CC4)CC3)cc1)=N[C@@H](C)c1nnc(C)n1-2 [III-249] | 50 to 500 | 500 to 2500 |  |  |  | 
50 to 500 | Cc1sc2c(c1C)C(c1ccc(N3CCC(O)(CN4CCN(c5ccc([C@H]6c7ccc(O)cc7CC[C@H]6c6ccccc6)nn5)CC4)CC3)cc1)=N[C@@H](Cc1ncco1)c1nnc(C)n1-2 [III-225] | < 50 | 50 to 500 |  |  |  | 
500 to 2500 | Cc1sc2c(c1C)C(c1ccc(C#CC3CC4(CCN(c5ccc([C@H]6c7ccc(O)cc7CC[C@H]6c6ccccc6)cc5)CC4)C3)cc1)=N[C@@H](Cc1ncco1)c1nnc(C)n1-2 [III-21] | 500 to 2500 | > 2500 |  |  |  | 
< 50 | Cc1sc2c(c1C)C(c1ccc(N3CC(CN4CCC(c5ccc([C@@H]6c7ccc(O)cc7CC[C@@H]6c6ccccc6)cc5)CC4)C3)cc1)=N[C@@H](C)c1nnc(C)n1-2 [III-148] | < 50 | 500 to 2500 |  |  |  | 
< 50 | Cc1sc2c(c1C)C(c1ccc(N3CCC(C(=O)N4CCN(c5ccc([C@@H]6c7ccc(O)cc7CC[C@@H]6c6ccccc6)cc5)CC4)CC3)cc1)=N[C@@H](Cc1ncco1)c1nnc(C)n1-2 [III-149] | < 50 | 50 to 500 |  |  |  | 
50 to 500 | Cc1sc2c(c1C)C(c1ccc(N3CCC(O)(CN4CCN(c5ccc([C@H]6c7ccc(O)cc7CC[C@H]6c6ccc(F)cc6F)cc5)CC4)CC3)cc1)=N[C@@H](C)c1nnc(C)n1-2 [III-183] | < 50 | 500 to 2500 |  |  |  | 
50 to 500 | Cc1sc2c(c1C)C(c1ccc(N3CC4(CCC(CN5CCN(c6ccc([C@@H]7c8ccc(O)cc8CC[C@@H]7c7ccccc7)cc6Cl)CC5)CC4)C3)cc1)=N[C@@H](C)c1nnc(C)n1-2 [III-265] | 50 to 500 | > 2500 |  |  |  | 
50 to 500 | Cc1sc2c(c1C)C(c1ccc(N3CCC(O)(CN4CCN(c5ccc([C@@H]6c7ccc(O)cc7CC[C@@H]6c6ccc(F)cc6)cc5Cl)CC4)CC3)cc1)=N[C@@H](C)c1nnc(C)n1-2 [III-302] | 50 to 500 | 500 to 2500 |  |  |  | 
50 to 500 | Cc1sc2c(c1C)C(c1ccc(CC(=O)N3CCC4(CCN(c5ccc([C@@H]6c7ccc(O)cc7CC[C@@H]6c6ccccc6)cc5)CC4)C3)cc1)=N[C@@H](C)c1nnc(C)n1-2 [III-137] | 500 to 2500 | 500 to 2500 |  |  |  | 
< 50 | Cc1sc2c(c1C)C(c1ccc(N3CC(O)(CC4CCN(c5ccc([C@@H]6c7ccc(O)cc7CC[C@@H]6c6ccccc6)cc5)CC4)C3)cc1)=N[C@@H](C)c1nnc(C)n1-2 [III-159] | < 50 | < 50 |  |  |  | 
< 50 | Cc1sc2c(c1C)C(c1ccc(N3CCC(O)(CN4CCN(c5ccc([C@@H]6c7ccc(O)cc7CC[C@@H]6c6ccc(F)cc6F)cc5)CC4)CC3)cc1)=N[C@@H](Cc1ncco1)c1nnc(C)n1-2 [III-259] | < 50 | 500 to 2500 |  |  |  | 
50 to 500 | Cc1sc2c(c1C)C(c1ccc(N3CCCC4(CCN(CCOc5ccc([C@@H]6c7ccc(O)cc7CC[C@@H]6c6ccccc6)cc5)CC4)C3)cc1)=NC(Cc1ncco1)c1nnc(C)n1-2 (stereo partly drawn) [III-55] | 50 to 500 | 500 to 2500 |  |  |  | 
50 to 500 | Cc1sc2c(c1C)C(c1ccc(N3CC(CCN4CC(COc5ccc([C@H]6c7ccc(O)cc7CC[C@H]6c6ccccc6)cc5)C4)C3)cc1)=N[C@@H](C)c1nnc(C)n1-2 [III-85] | 50 to 500 | 500 to 2500 |  |  |  | 
50 to 500 | Cc1sc2c(c1C)C(c1ccc(N3CCC(O)(CC4CCN(c5ccc([C@@H]6c7ccc(O)cc7CC[C@@H]6c6ccccc6)cc5)CC4)CC3)cc1)=N[C@@H](C)c1nnc(C)n1-2 [III-152] | < 50 | 500 to 2500 |  |  |  | 
